The nature of data set [1]: Liver accumulation after intragastric IXA administration at various concentrations to rats for 28 days. It counts as in vivo, Sprague–Dawley rats. The conditions noted are these: rat liver; IXA 112.5–1500 mg/kg BW once a day for 28 days; Pearson. Here is the method:
Six‐week‐old female Sprague–Dawley rats (Charles River Laboratories Japan, Inc., Yokohama, Japan) were housed in a room maintained at 20–26°C on a 12‐h light–dark cycle. The initial BW of rats was 176–179 g. They were allowed free access to a commercial diet (CRF‐1) and water during the experiment. IXA dissolved in injection solution was administered intragastrically to rats (112.5, 225, 360, 450, and 1500 mg/kg BW) daily for 28 days using a gastric feeding tube. We also set up a control group to which the injection solution was administered. The final BW of rats was 231–241 g. The liver was collected the day after the last administration. The rats were fasted for 16–24 h before they were euthanized, but they had free access to water. Liver samples were stored at −80°C until analysis.
(§1) Tissue sample deconjugation was performed as described in a previous report with slight modifications (Tanaka et al., [2022]). Tissues were homogenized in phosphate‐buffered saline (pH 7.4), which was nine times the tissue volume. The tissue homogenate was incubated in 50 mmol/L ascorbic acid (one‐fifth the volume of phosphate‐buffered saline) and 1.67 μkat/100 μL of β‐glucuronidase type H‐1 in 0.1 mol/L sodium acetate buffer (pH 4.7, nine times the volume of the sample) for 2 h at 37°C. Then, 2.4 nmol of QTM was added to samples as an internal standard. The supernatant was isolated by centrifugation at 17 × 10^3 m/s^2 (Kubota) for 5 min at 4°C. Then, methanol (Kanto Kagaku, 25183‐2B) was added to the pellets, and they were shaken for 1 min. The methanol layer and pellets were separated by centrifugation at 17 × 10^3 m/s^2 (Kubota, RY1071‐A000) for 5 min at 4°C. Methanol extraction was repeated three times. Finally, methanol extracts were mixed with the supernatant (the composition of the mixture was 30% methanol) and then applied to an Inert Sep C8 (200 mg/3 mL; GL Sciences, Tokyo, Japan; 5010‐61082) cartridge. The cartridge was preconditioned with 6 mL of 2% acetic acid in methanol, and then 9 mL of 2% acetic acid in water. The extracted tissue was passed through the cartridge, and it was washed with 5 mL of 2% acetic acid in 30% methanol aq. The flavonoids were eluted with 10 mL of 2% acetic acid in methanol.
The plasma and tissue extracts were evaporated using a Centrifugal Evaporator (EYERA, Tokyo, Japan, CVE‐3000). The samples were stored at −80°C until the next day. Then, the samples were dissolved in 120 μL of a mobile phase solution and divided into two test tubes. […]
IXA and 8‐PN concentrations were determined by their respective standard curves using an internal standard method. […] Because clear peaks over 4.5 pmol/sample were detected for IXA and 8‐PN by visual evaluation, we determined that these concentrations were the peak limit of detections for each flavonoid. […]

Data set [2] in a line: Plasma pharmacokinetics after single-gavage administration of IXA to mice. Particulars: for Cmax: mean ± SEM. The class given is in vivo, C57/BL6 mice. Here is the method:
Six‐week‐old male C57/BL6 mice (initial BW: 19–24 g; Japan SLC, Shizuoka, Japan) were housed in a room maintained at 23–26°C with a 12‐h light–dark cycle. During the 1‐week acclimatization period, they were allowed free access to a commercial diet (Oriental Yeast Co., Tokyo, Japan) and water. Two days before the experiment, they were fed AIN‐93M (Oriental Yeast Co.). Before drug administration, they were fasted for 20 h, but had free access to water. IXA dissolved in 3% hydroxypropyl‐β‐cyclodextrin and 5% ethanol (Fujifilm; Wako Pure Chemical Corp., Osaka, Japan) was named the injection solution and administered (50 mg/kg BW) to mice intragastrically using a gastric feeding tube (AS ONE, Osaka, Japan). Blood, brain, thymus, heart, lung, liver, spleen, pancreas, kidney, and gastrocnemius muscle were collected 0.5, 1, 2, 4, 8, 12, 24, and 48 h after administration. We also set up a control group, and mice in this group were sacrificed just before we started administering IXA at 0 h. At 4 h after administration, mice were allowed free access to AIN‐93 M. Plasma was isolated by centrifugation at 17 × 10^3 m/s^2 (5911, Kubota, Tokyo, Japan) for 5 min at 4°C. All tissues were dissected, weighed, and immediately frozen in liquid nitrogen. All samples were stored at −80°C until analysis.
(§2) Plasma samples were deconjugated by β‐glucuronidase type H‐1 (which has β‐glucuronidase and sulphatase activity; Sigma, St. Louis, MO, USA; G0751) to convert aglycon from conjugated metabolites of IXA and 8‐PN, as described in a previous report (Y. Tanaka et al., [2022]). Briefly, 100 μL of plasma was mixed with 900 μL of 0.1 mol/L sodium acetate buffer (pH 4.7), 200 μL of 50 mmol/L ascorbic acid, and 1 mL of 1.67 μkat/100 μL of β‐glucuronidase type H‐1, and then incubated for 30 min at 37°C. Then, 2.4 nmol of QTM was added to the samples as the internal standard. The liberated aglycone was extracted using ethyl acetate (Kanto Kagaku, 14,029‐2B).
(§3) The plasma and tissue extracts were evaporated using a Centrifugal Evaporator (EYERA, Tokyo, Japan, CVE‐3000). The samples were stored at −80°C until the next day. Then, the samples were dissolved in 120 μL of a mobile phase solution and divided into two test tubes. The first sample was injected into the HPLC with an ultraviolet detection system (Shimadzu, Kyoto, Japan).
(§4) IXA and 8‐PN concentrations were determined by their respective standard curves using an internal standard method. A Cadenza 3‐μm CD‐C18 HPLC column (CD005, 150 × 4.6 mm; Imtakt Corporation, Kyoto, Japan) was equipped for HPLC (λ = 295 nm). The mobile phase consisted of methanol:water:acetic acid (60:35:5, v/v/v). The flow rate was set at 1.0 mL/min. […] Because clear peaks over 4.5 pmol/sample were detected for IXA and 8‐PN by visual evaluation, we determined that these concentrations were the peak limit of detections for each flavonoid. We applied calibration curves in the IXA/QTM concentration ratio range of 0.007–35.1 (R ^2 = .9955).

On the set-up of data set [3]: method as in Possemiers et al., 2008. Particulars: ref Possemiers et al., 2008; cited from earlier work.
Data set [4] can be described thus: Tissue and plasma accumulation after daily gavage administration of IXA to mice for 14 days. The class given is in vivo, C57/BL6 mice. Particulars: IXA 30 mg/kg BW daily 14 days, 24 h after final administration. Here is the method:
Animal species, age, sex, initial BW, feeding conditions, and dosage method were the same as those for the single gavage administration test, but the dose was 30 mg/kg BW. […] Daily gavage administration without fasting was performed at 12:00 PM for 14 days. The final BW was 21–26 g. Blood, brain, thymus, heart, lung, liver, spleen, kidney, and gastrocnemius muscle were collected 24 h after the final administration. The sample collection method was the same as that for the single gavage administration test.
as §2, §1, §3, §4

Setting [5] is: single oral IXA 50 mg/kg BW, plasma.

The values below come from article PMC10916623, “Tissue distribution and pharmacokinetics of isoxanthohumol from hops in rodents” (Food Science & Nutrition, 2023).

Several values for one entry are separate records, joined by “and”; a condition that tells them apart may be missing. Identical values can stand only once. Like-named read-outs stand apart in the source and are kept apart here.

“4,7‐dihydroxy‐5‐methoxy‐8‐prenylflavanone [IXA]”: the “correlation coefficient between dose-concentration and accumulation” value in data set [1] is given as “.813”. Besides, the “IXA accumulation, single-ingestion test (at 24 h)” value in data set [2] (plasma, single IXA 50 mg/kg BW, 24 h) is given as 0.2 ± 0.1 μmol/L of plasma. In addition, the “time at which IXA was increased further” value in data set [2] (plasma, single oral IXA 50 mg/kg BW) is listed as 8 h. For the same substance, the “IXA in plasma at 48 h after administration” value in data set [2] (single oral IXA 50 mg/kg BW, 48 h) is “not detected”. For the same substance, the “T 1/2 (half-life in the mean elimination phase)” value in data set [2] (setting [5]) is 1.43 h and 1.4 h. Also, the “time until which detected in plasma after ingestion” value in data set [2] (setting [5]) came out at 24 h. In addition, the Cmax in data set [2] (single oral IXA 50 mg/kg BW, plasma, at 0.5 h, read-out: plasma maximum concentration (C max)) worked out at 3.95 ± 0.81 µM; in data set [2] (single oral IXA 50 mg/kg BW, plasma, read-out: C max) it was 4 ± 0.8 µM. Moreover, in data set [2] (single oral IXA 50 mg/kg BW, plasma, calculated using the mean at each time point), the AUC24h was 18.2 µmol·h/L. Besides, in data set [3], the “rate of excretion into the feces” value is on record as “approximately 47%”. Further, the “IXA accumulation, 14-day repeated-ingestion test” value in data set [4] (brain) is on record as 0.2 ± 0.1 nmol/g of tissue; in data set [4] (heart), “not detected”; in data set [4] (kidney) it was 5.8 ± 1.0 nmol/g of tissue; in data set [4] (liver), 8.6 ± 2.9 nmol/g of tissue; in data set [4] (lung) it was 3.2 ± 2.8 nmol/g of tissue; in data set [4] (plasma) it was “not detected”. For the same substance, the “IXA accumulation, 14-day repeated-ingestion test” value is on record as 3.4 ± 2.0 nmol/g of tissue in data set [4] (spleen) and 4.3 ± 3.8 nmol/g of tissue in data set [4] (thymus).
